Measured values reported in US20090099218A1, “SYNTHESIS OF NOVEL TUBULIN POLYMERIZATION INHIBITORS: BENZOYLPHENYLUREA (BPU) SULFUR ANALOGS” (priority 2007, published 2009).
Where “and” joins values, the source holds several entries; their conditions need not be identical. Identical values can stand only once.

Legend:
[1] = tested on: Panc1005; experiment: MTT growth inhibition, pancreatic cell line Panc1005; assay type: cell-based; settings: Homo sapiens, Panc1005; MTT assay, 96 h treatment; average of three independent experiments
Description: Eight of these analogs 6d, 6h, 6n, 6g, 7b, 7d, 8g, and 8h were tested for their cytotoxicity in seven pancreatic cell lines ASPC1, Panc1, Panc203, Panc430, Pane 1005, MiaPaca2, and HS766T using MTT assay. Cells were trypsinized, seeded at 5×10^3 cells/well in 96-well plate and allowed to grow for 24 hours before the treatment with exponential increasing concentrations of drugs in the presence of 10% FBS. After a 96-hours period of treatment, 20 μl of MTT solution (5 mg/ml in PBS) were added to each well, and the plates were then incubated for 3 hours at 37° C. Medium was then replaced with 100 μl of DMSO per well. Plates were shaken and the optical density was measured at 570 nm using a multiwell plate reader (Bio-Rad, Model 550, Bio-Rad Inc., Hercules, Calif.). Each experiment was performed in triplicate for each drug concentration and was carried out independently at least 3 times. The IC50 value was defined as the concentration needed for a 50% reduction in the absorbance calculated based on the survival curves. Response to drug treatment was assessed by standardizing treatment groups to untreated controls. Compounds activity was compared with compound 1.
Table 2 (Growth Inhibition of Pancreatic Cancer Cell Lines by BPU and BPTU Analogues (IC50) a) compares the cytotoxicity of a series of new derivatives against a panel of seven pancreatic cancer cell lines, as determined by MTT assay. See, Mosmann, T., J. Immunol. Methods 65:55-63 (1983).

[2] = tested on: pancreas cancer xenografts; experiment: In vivo growth inhibition of patient-derived pancreas cancer xenografts; design: species or system athymic nude mice; settings: for average growth after 28 days of treatment (T/C): individual patient xenograft cases; for efficacy in case 194: case with the greatest expression of MAPT; for slopes of treated versus control group, all nine cases: integrated analysis of nine treatment groups; for efficacy in case 215: low MAPT-expressing case, docetaxel 30 mg/kg i.p. once a week for 2 weeks
Description: Six-week-old female athymic nude mice (Harlan) were used. The research protocol was approved by the Johns Hopkins University Animal Care and Use Committee, and animals were maintained in accordance to guidelines of the American Association of Laboratory Animal Care. Surgical non-diagnostic specimens from patients who had undergone surgery at the Johns Hopkins Hospital were implanted s.c. in one to two mice for each patient, with two small pieces per mouse (F1 generation). Tumors were grown to 1.5 cm^3 and then harvested, divided into small ˜3×3×3 mm pieces, and transplanted to another five mice, with two tumors per mouse (F2 generation). After a second growth passage, tumors were excised and propagated to cohorts of ≧20 mice. These groups constituted the F3, or treatment cohort. Tumors from this third mouse-to-mouse passage were allowed to grow to ˜200 mm3, at which time mice were randomized into three treatment groups, with five to six mice (10 evaluable tumors) in each group: control (vehicle), 6n (50 mg/kg i.p. twice per week), and 7d (50 mg/kg i.p. twice per week). Docetaxel treatment was given to selected groups at a dose of 30 mg/kg i.p. once a week for 2 weeks. Mice were monitored daily for signs of toxicity and were weighed thrice per week. Tumor size was evaluated twice per week by caliper measurements using the following formula: tumor volume=[length×width^2]/2. Relative tumor growth inhibition was calculated by relative tumor growth of treated mice divided by relative tumor growth of control mice from the onset of therapy (T/C).
To assess the treatment effect, a hierarchical linear regression model was used with random intercepts and fixed slopes. Based on the results of exploratory plots, the assumption of fixed effects for slopes seemed reasonable. This model allowed for mouse effects to be nested within patient effects so that the hierarchical structure is fully accounted for. Specifically, the following linear regression model was fitted: log(γiJt)=a1ijtimeijt+b2jtimeijt×trtij+βtime^2ijt+eijt where j indexes patient, i indexes mouse, and t indexes time; yijt is the percentage change in tumor volume (compared with day 0) in mouse i, which is a xenograft for patient j at time t; and trtij is treatment (1=treated, 0=control) received by mouse i, which is a xenograft for patient j. […] An intercept and main effect of treatment were not included in the model that makes two assumptions: (a) at time 0, the change from baseline is 0 (which is empirically true), and (b) at baseline, the treated and untreated curves intersect. The model was fit using Win-Bugs software that estimates models using a Markov chain Monte Carlo estimation procedure. A burn-in of 10,000 iterations was done, and then the chain was run for an additional 20,000 iterations, of which every 10th iteration was saved for inference. Several chains were run with different starting values to ensure convergence. No convergence issues arose. The fitted model was used to make inferences with respect to the treatment effect and to create fitted regression lines (rescaled on the Y-axis for clearer interpretation). Point estimates of variables of interest (e.g., expected difference in tumor volume between treated and control at 28 days) and 95% credible intervals were based on the mean of posterior distributions and the 2.5th and 97.5th quantiles of the posterior distribution, respectively. The comparisons between means and proportions obtained from the biological studies were done using Student's t-test and χ^2 method, respectively. ANOVA was used when three or more variables were compared.
Tumors from nine cases of pancreatic cancer were used to establish xenografts in nude mice, and the animals were treated with either vehicle, 6n, or 7d (FIG. 36A). The level of efficacy varied both between drugs and within cases treated with each drug. FIG. 37 provides an integrated summary of all data points obtained in the studies. […]

[3] = tested on: MCF-7 cells; experiment: Apoptosis of MCF-7 cells; assay type: cell-based; settings: 48 hours
[4] = tested on: tubulin; experiment: Inhibition of [3H]colchicine binding; settings: Tubulin 1 μM; [3H]colchicine and inhibitor at 5 μM

Structure (SMILES)	IC50 [1] [µM]	average growth after 28 days of treatment (T/C) ([2]; 50 mg/kg i.p. twice per week)	efficacy in case 194 [2]	slopes of treated versus control group, all nine cases [2]	efficacy in case 215 [2]	rate of apoptosis ([3]; 10 nM) [%]	rate of apoptosis ([3]; 30 nM) [%]	rate of apoptosis ([3]; 100 nM) [%]	colchicine binding (% ± SD), inhibition of [3H]colchicine binding [4] [%]	proportion of sensitive cases, above the median MAPT expression ([2]; 50 mg/kg i.p. twice per week)	proportion of sensitive cases, below the median MAPT expression ([2]; 50 mg/kg i.p. twice per week)	efficacy compared with docetaxel ([2]; direct comparison in three cases)	efficacy compared with erlotinib ([2]; same patient-derived xenografts)
Nc1ccccc1C(=O)NC(=O)Nc1ccc(Sc2ncc(Br)cn2)cc1 [Compound 7d]	10	43% and 59%	inactive	no statistical differences	particularly efficacious								
O=C(NC(=O)c1ccccc1[N+](=O)[O-])Nc1ccc(Sc2ncc(Br)cn2)cc1 [Compound 6n, 1-[4-(5-Bromopyrimidin-2-ylsulfanyl)phenyl]-3-(2-nitrobenzoyl)-urea]	10	≤ 50% and 60%	inactive	no statistical differences	particularly efficacious	29.7	51.2	53.6	17 ± 3	0 of 4	4 of 5	at least as efficacious (if not better) than docetaxel	superior to erlotinib
